Source: PMC9602792, “Preclinical evaluation of the epithelial sodium channel inhibitor AZD5634 and implications on human translation” (American Journal of Physiology - Lung Cellular and …, 2022)

Assays:
[1] = design: method as in unpublished information; details: ref unpublished information, cited from earlier work
[2] = tested on: Cftr^−/− rats; assay: μOCT of trachea and lungs excised en bloc from Cftr-knockout rats treated in vivo; design: species or system rat; details: seven 200-μL doses of 54 µM by oropharyngeal aspiration over 4 days; not significant vs vehicle
Description: μOCT imaging and analysis were conducted in vitro and ex vivo as detailed in previous publications ([2], [39]–[41]). Briefly, the μOCT system uses light reflectance to produce video-rate (40 frames/s and 512 lines/frame), high-resolution images (1 micron) captured in real-time and without disruption of sample tissue, permitting simultaneous interrogation of key parameters of airway microanatomy without the addition of exogenous particles or dyes. Following imaging of HBEC cultures and of excised trachea and lungs, images were assessed to obtain quantitative measurements of mucociliary transport (MCT) rate, ASL depth, and ciliary beat frequency (CBF). MCT rates were calculated by analyzing the distance traveled by native particles in the mucus layer over time across multiple frames. Direct geometric measurement of layer thickness (Image J software) yielded ASL depths. CBF was determined by using custom code developed in Matlab (Mathworks, Natick, MA) to quantify the reflectance of beating cilia by Fourier analysis. […] The results for each trachea and lung sample reflected an average of measurements from images obtained from a minimum of six controlled points along the tracheal length, using the cranial end as a reference.
Six-month-old Cftr-knockout rats (female and male) were treated with seven 200-μL doses of either 54 µM AZD5634 or vehicle control, delivered by oropharyngeal aspiration, over 4 days (two doses daily for 3 days and a single dose on the 4th day, 2 h before euthanasia). Rats were euthanized by intraperitoneal injection of pentobarbital sodium (Fatal Plus, 100 mg/kg), and trachea and lungs were excised en bloc and dissected along the dorsal surface from the larynx to the terminal end of the main stem bronchi. […]
Descriptive statistics were calculated and means compared using unpaired or paired t tests, or ANOVA, with post hoc analyses conducted for multiple comparisons where appropriate. […]

[3] = tested on: HBECs grown under ALI conditions; assay: Gravimetric measurement of ASL (fluid retention) in HBEC ALI cultures; format: cell-based, human; details: gravimetric ALI assay; concentrations of 0.1 µM and above
Description: After 3–4 wk, the HBEC ALI cultures were washed with PBS twice before the experiment was initiated. Thirty microliters of either vehicle or test compound (10 μM) was added apically and inserts were weighed after removal of basolateral fluid as a crude but simple way to measure retention of fluid on the apical side of the airway cultures. The weighing procedure was repeated at 4, 8, and 24 h.

[4] = tested on: sodium/hydrogen exchangers; design: method as in PMID 33974881; details: specificity unknown; cited from earlier work

Question: With AZD5634 as the substance, how does the hyperkalemia ([1]; after inhalation and/or nebulization) read?
Answer: Its hyperkalemia is “does not cause hyperkalemia”.

Question: And the renal clearance [1]?
Answer: Its renal clearance is “minimal”.

Question: And the ASL depth [2]?
Answer: The ASL depth was 15.8 ± 2.1 µm.

Question: And the MCT rate [2]?
Answer: The MCT rate was 0.3 ± 0.1 mm/min.

Question: What about the “ciliary beating (CBF)” value [2] of the same substance?
Answer: Its value is 7.9 ± 0.7 Hz.

Question: And the “duration of (fluid-retaining) effect on ASL” value [3]?
Answer: Its value is > 24 h.

Question: And the “effect on sodium/hydrogen exchangers” value [4]?
Answer: The value was “blocks sodium/hydrogen exchangers”.
